Results on 11 molecules are retold here after patent publication US20250206732A1, “COMPOUNDS AND METHODS FOR THE TARGETED DEGRADATION OF KRAS” (Arvinas Operations, Inc., priority 2022, published 2025).

The target in this assay is T1, AsPC-1 HiBiT-KRASG12D (Homo sapiens, UniProt P01116, G12D).
T1 construct: insert the HiBiT tag onto the N-terminus of one or more of the endogenous KRAS alleles; endogenous in cells; host or cells: AsPC-1 (ATCC CRL-1682), CRISPR-Cas9 knock-in clone, one tagged allele
T1 sequence (P01116 1-188 isoform P01116-2 G12D): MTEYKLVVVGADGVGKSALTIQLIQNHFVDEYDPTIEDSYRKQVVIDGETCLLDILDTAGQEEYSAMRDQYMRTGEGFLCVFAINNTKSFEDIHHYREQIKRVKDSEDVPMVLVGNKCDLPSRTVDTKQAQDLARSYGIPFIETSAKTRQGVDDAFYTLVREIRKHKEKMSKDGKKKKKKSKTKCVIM
The assay can be described thus: HiBiT degradation assay (G12D), AsPC-1 HiBiT-KRASG12D cells. The settings on record: 24 hours treatment; for Dmax: ASPC1, AsPC-1 HiBiT-KRASG12D cells, maximum degradation observed; for DC50: AsPC-1 HiBiT-KRASG12D cells, HiBiT luminescence. In kind it is cell-based. The method in brief:
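HiBiT-KRAS abundance was read as Nano-Glo HiBiT lytic luminescence (45 min, room temperature) after a PBS wash. Before that, a 4 h alamar blue fluorescence read, normalized to DMSO, monitored viability. Treatment lasted 24 hours at 37 °C, in triplicate, using AsPC-1 cells with endogenous N-terminally HiBiT-tagged KRAS G12D.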

As for `CCc1cccc2cc(O)cc(-c3ncc4c(N5CC6CCC(C5)N6)nc(OC[C@@H]5CC[C@@H](COC(=O)N6CC7(C6)CN(c6cc([C@H](C(=O)N8C[C@H](O)C[C@H]8C(=O)N[C@@H](C)c8ccc(-c9scnc9C)cc8)C(C)C)on6)C7)N5C)nc4c3F)c12` [Compound 213, [(2S,5S)-5-{[(4-{3,8-diazabicyclo[3.2.1]octan-3-yl}-7-(8-ethyl-3-hydroxynaphthalen-1-yl)-8-fluoropyrido[4,3-d]pyrimidin-2-yl)oxy]methyl}-1-methylpyrrolidin-2-yl]methyl 6-{5-[(2R)-1-[(2S,4R)-4-hydroxy-2-{[(1S)-1-[4-(4-methyl-1,3-thiazol-5-yl)phenyl]ethyl]carbamoyl}pyrrolidin-1-yl]-3-methyl-1-oxobutan-2-yl]-1,2-oxazol-3-yl}-2,6-diazaspiro[3.3]heptane-2-carboxylate], the Dmax lay within 80 to 100% and the DC50 is < 600 nM.
For the molecule `CCc1cccc2cc(O)cc(-c3ncc4c(N5CC6CCC(C5)N6)nc(OCCN5CCC(F)(CN6CCN(c7cc([C@H](C(=O)N8C[C@H](O)C[C@H]8C(=O)N[C@@H](C)c8ccc(-c9scnc9C)cc8)C(C)C)on7)C[C@@H]6C)CC5)nc4c3F)c12` [Compound 214, (2S,4R)-1-[(2R)-2-{3-[(3S)-4-[(1-{2-[(4-{3,8-diazabicyclo[3.2.1]octan-3-yl}-7-(8-ethyl-3-hydroxynaphthalen-1-yl)-8-fluoropyrido[4,3-d]pyrimidin-2-yl)oxy]ethyl}-4-fluoropiperidin-4-yl)methyl]-3-methylpiperazin-1-yl]-1,2-oxazol-5-yl}-3-methylbutanoyl]-4-hydroxy-N-[(1S)-1-[4-(4-methyl-1,3-thiazol-5-yl)phenyl]ethyl]pyrrolidine-2-carboxamide], the Dmax is 80 to 100% and the DC50 is < 600 nM.
On to `CCc1cccc2cc(O)cc(-c3ncc4c(N5CC6CCC(C5)N6)nc(OCCN5CCC(OC6CN(c7cc([C@H](C(=O)N8C[C@H](O)C[C@H]8C(=O)N[C@@H](C)c8ccc(-c9scnc9C)cc8)C(C)C)on7)C6)CC5)nc4c3F)c12` [Compound 215, (2S,4R)-1-[(2R)-2-(3-{3-[(1-{2-[(4-{3,8-diazabicyclo[3.2.1]octan-3-yl}-7-(8-ethyl-3-hydroxynaphthalen-1-yl)-8-fluoropyrido[4,3-d]pyrimidin-2-yl)oxy]ethyl}piperidin-4-yl)oxy]azetidin-1-yl}-1,2-oxazol-5-yl)-3-methylbutanoyl]-4-hydroxy-N-[(1S)-1-[4-(4-methyl-1,3-thiazol-5-yl)phenyl]ethyl]pyrrolidine-2-carboxamide], for which the greatest degradation seen (Dmax) lay within 80 to 100% and the half-maximal degradation concentration (DC50) is < 600 nM.
Regarding `CCc1cccc2cc(O)cc(-c3ncc4c(N5CC6CCC(C5)N6)nc(OCCN5CCC(OC6CN(c7cc([C@@H](C(=O)N8C[C@H](O)C[C@H]8C(=O)N[C@@H](C)c8ccc(-c9scnc9C)cc8)C(C)C)on7)C6)CC5)nc4c3F)c12` [Compound 216, (2S,4R)-1-[(2S)-2-(3-{3-[(1-{2-[(4-{3,8-diazabicyclo[3.2.1]octan-3-yl}-7-(8-ethyl-3-hydroxynaphthalen-1-yl)-8-fluoropyrido[4,3-d]pyrimidin-2-yl)oxy]ethyl}piperidin-4-yl)oxy]azetidin-1-yl}-1,2-oxazol-5-yl)-3-methylbutanoyl]-4-hydroxy-N-[(1S)-1-[4-(4-methyl-1,3-thiazol-5-yl)phenyl]ethyl]pyrrolidine-2-carboxamide], the Dmax is 20 to 60% and the DC50 was in the range of 1000 to 3000 nM.
In turn, `C#Cc1c(F)ccc2cc(O)cc(-c3ncc4c(N5CC6CCC(C5)N6)nc(OCCN5CCC(CC6CN(c7cc([C@@H](C(=O)N8C[C@H](O)C[C@H]8C(=O)N[C@@H](C)c8ccc(-c9scnc9C)cc8)C(C)C)on7)C6)CC5)nc4c3F)c12` [Compound 217, (2S,4R)-1-[(2S)-2-(3-{3-[(1-{2-[(4-{3,8-diazabicyclo[3.2.1]octan-3-yl}-7-(8-ethynyl-7-fluoro-3-hydroxynaphthalen-1-yl)-8-fluoropyrido[4,3-d]pyrimidin-2-yl)oxy]ethyl}piperidin-4-yl)methyl]azetidin-1-yl}-1,2-oxazol-5-yl)-3-methylbutanoyl]-4-hydroxy-N-[(1S)-1-[4-(4-methyl-1,3-thiazol-5-yl)phenyl]ethyl]pyrrolidine-2-carboxamide] came in with a Dmax of 20 to 60% and a half-maximal degradation concentration (DC50) of 1000 to 3000 nM.
Take `CCc1cccc2cc(O)cc(-c3ncc4c(N5CC6CCC(C5)N6)nc(OCCC5CCN(CC6CN(c7cc([C@H](C(=O)N8C[C@H](O)C[C@H]8C(=O)N[C@@H](C)c8ccc(-c9scnc9C)cc8)C(C)C)on7)C6)CC5)nc4c3F)c12` [Compound 218, (2S,4R)-1-[(2R)-2-(3-{3-[(4-{2-[(4-{3,8-diazabicyclo[3.2.1]octan-3-yl}-7-(8-ethyl-3-hydroxynaphthalen-1-yl)-8-fluoropyrido[4,3-d]pyrimidin-2-yl)oxy]ethyl}piperidin-1-yl)methyl]azetidin-1-yl}-1,2-oxazol-5-yl)-3-methylbutanoyl]-4-hydroxy-N-[(1S)-1-[4-(4-methyl-1,3-thiazol-5-yl)phenyl]ethyl]pyrrolidine-2-carboxamide]: the Dmax fell in the range of 80 to 100% and the DC50 was < 600 nM.
In turn, `CCc1cccc2cc(O)cc(-c3ncc4c(N5CC6CCC(C5)N6)nc(OCCC5CCN(CC6CN(c7cc([C@@H](C(=O)N8C[C@H](O)C[C@H]8C(=O)N[C@@H](C)c8ccc(-c9scnc9C)cc8)C(C)C)on7)C6)CC5)nc4c3F)c12` [Compound 219, (2S,4R)-1-[(2S)-2-(3-{3-[(4-{2-[(4-{3,8-diazabicyclo[3.2.1]octan-3-yl}-7-(8-ethyl-3-hydroxynaphthalen-1-yl)-8-fluoropyrido[4,3-d]pyrimidin-2-yl)oxy]ethyl}piperidin-1-yl)methyl]azetidin-1-yl}-1,2-oxazol-5-yl)-3-methylbutanoyl]-4-hydroxy-N-[(1S)-1-[4-(4-methyl-1,3-thiazol-5-yl)phenyl]ethyl]pyrrolidine-2-carboxamide] had a Dmax of 20 to 60% and a DC50 of 1000 to 3000 nM.
On to `CCc1cccc2cc(O)cc(-c3ncc4c(N5CC6CCC(C5)N6)nc(OCCN5CCN(CC6CN(c7cc([C@H](C(=O)N8C[C@H](O)C[C@H]8C(=O)N[C@@H](C)c8ccc(-c9scnc9C)cc8)C(C)C)on7)C6)CC5)nc4c3F)c12` [Compound 220, (2S,4R)-1-[(2R)-2-(3-{3-[(4-{2-[(4-{3,8-diazabicyclo[3.2.1]octan-3-yl}-7-(8-ethyl-3-hydroxynaphthalen-1-yl)-8-fluoropyrido[4,3-d]pyrimidin-2-yl)oxy]ethyl}piperazin-1-yl)methyl]azetidin-1-yl}-1,2-oxazol-5-yl)-3-methylbutanoyl]-4-hydroxy-N-[(1S)-1-[4-(4-methyl-1,3-thiazol-5-yl)phenyl]ethyl]pyrrolidine-2-carboxamide], for which the maximal degradation (Dmax) lay within 80 to 100% and the half-maximal degradation concentration (DC50) is < 600 nM.
Take `CCc1cccc2cc(O)cc(-c3ncc4c(N5CC6CCC(C5)N6)nc(OCCN5CCN(CC6CN(c7cc([C@@H](C(=O)N8C[C@H](O)C[C@H]8C(=O)N[C@@H](C)c8ccc(-c9scnc9C)cc8)C(C)C)on7)C6)CC5)nc4c3F)c12` [Compound 221, (2S,4R)-1-[(2S)-2-(3-{3-[(4-{2-[(4-{3,8-diazabicyclo[3.2.1]octan-3-yl}-7-(8-ethyl-3-hydroxynaphthalen-1-yl)-8-fluoropyrido[4,3-d]pyrimidin-2-yl)oxy]ethyl}piperazin-1-yl)methyl]azetidin-1-yl}-1,2-oxazol-5-yl)-3-methylbutanoyl]-4-hydroxy-N-[(1S)-1-[4-(4-methyl-1,3-thiazol-5-yl)phenyl]ethyl]pyrrolidine-2-carboxamide]: the DC50 was > 3000 nM.
As to `CCc1cccc2cccc(-c3ncc4c(N5CC6CCC(C5)N6)nc(OC[C@@H]5CC[C@@H](COC(=O)N6CCN(c7cc([C@H](C(=O)N8C[C@H](O)C[C@H]8C(=O)N[C@@H](C)c8ccc(-c9scnc9C)cc8)C(C)C)on7)[C@H](C)C6)N5C)nc4c3F)c12` [Compound 222, [(2S,5S)-5-{[(4-{3,8-diazabicyclo[3.2.1]octan-3-yl}-7-(8-ethylnaphthalen-1-yl)-8-fluoropyrido[4,3-d]pyrimidin-2-yl)oxy]methyl}-1-methylpyrrolidin-2-yl]methyl (3R)-4-{5-[(2R)-1-[(2S,4R)-4-hydroxy-2-{[(1S)-1-[4-(4-methyl-1,3-thiazol-5-yl)phenyl]ethyl]carbamoyl}pyrrolidin-1-yl]-3-methyl-1-oxobutan-2-yl]-1,2-oxazol-3-yl}-3-methylpiperazine-1-carboxylate], the Dmax lay within 60 to 80% and the DC50 was < 600 nM.
For `CCc1cccc2cccc(-c3ncc4c(N5CC6CCC(C5)N6)nc(OC[C@@H]5CC[C@@H](COC(=O)N6CC(Oc7cc([C@H](C(=O)N8C[C@H](O)C[C@H]8C(=O)N[C@@H](C)c8ccc(-c9scnc9C)cc8)C(C)C)on7)C6)N5C)nc4c3F)c12` [Compound 223, [(2S,5S)-5-{[(4-{3,8-diazabicyclo[3.2.1]octan-3-yl}-7-(8-ethylnaphthalen-1-yl)-8-fluoropyrido[4,3-d]pyrimidin-2-yl)oxy]methyl}-1-methylpyrrolidin-2-yl]methyl 3-({5-[(2R)-1-[(2S,4R)-4-hydroxy-2-{[(1S)-1-[4-(4-methyl-1,3-thiazol-5-yl)phenyl]ethyl]carbamoyl}pyrrolidin-1-yl]-3-methyl-1-oxobutan-2-yl]-1,2-oxazol-3-yl}oxy)azetidine-1-carboxylate] the same measures were 80 to 100% and < 600 nM.
